Laboratory results from paper PMC9468151, “Identification of a binding site on soluble RANKL that can be targeted to inhibit soluble RANK-RANKL interactions and treat osteoporosis” (Nature Communications, 2022).
“And” between values parts separate entries of the source, which are not always exact repeats. Equal values may be shown once. “Also recorded” adds a separate entry of the source.

Experiments:
[1] = system: sRANKL induced osteoclast differentiation; assay: In vitro anti-osteoclastogenesis activity determination (TRAP staining); format: cell-based, mouse; conditions: BMMs, M-CSF + 100 ng/mL sRANKL, 5 days, TRAP staining
Procedure: Mouse osteoclasts were cultured according to the previously reported protocols. BMMs were plated in 96-well plates at a density of 6 × 10^3 cells/well with complete medium containing 10 ng/mL M-CSF. The following day, cells were then stimulated with 100 ng/mL sRANKL in the presence or absence of compounds with different concentrations every 2 days until osteoclasts formed. In order to calculate IC50, we set 9 concentrations for each compound and untreated and non-sRANKL unstimulating group as controls, each with triplicated repeated wells. After 5 days, cells were fixed with 4% paraformaldehyde and then applied TRAP-staining to identify osteoclasts by using the TRAP-staining kit. Osteoclasts number (OC No.) in each well was counted and the percentage of inhibition ratio was calculated as follows:1 OCinhibitoryratio%=100−OCNo.treated−OCNo.unstimulating/OCNo.untreated−OCNo.unstimulating×100%
The dosages and their correspondent osteoclastogenesis inhibitory activity curve and IC50 value were conducted by using Nonlinear regression (curve fit) analytic procedure in GraphPad Prism 8. Photographs of individual wells were taken using Leica microscope.

T lymphocyte = T lymphocyte cell proliferation assay (CFSE, CD4+/CD8+ flow cytometry); format: cell-based, human
Procedure: T lymphocyte cell proliferation assay was performed according to a reported method[58] with some modification. Briefly, 5 × 10^6 cells /mL cells were stained 2.5 μM CFSE (Tonbo Biosciences) and incubated at 37 °C for 12 min. Then washed and discarded the supernatant and adjusted the CFSE stained cell to 1.75 × 10^6 cells /mL. Cells were diluted in 1640 completed medium containing 5 μg/mL anti-CD3 antibody (Tonbo Biosciences) to 3 × 10^5 cells/mL and seed in a 96-well plate or 24-well plate that pre-packaged 0.4 μg/well anti-CD28 antibody and 1.6 μg anti-CD28 antibody (24-well) (Tonbo Biosciences). Cells were then cultured for 3 days, 9 days or 12 days. Subsequently, the proportion of CD4^+ and CD8^+ cells was determined by flow cytometry (Beckman Coulter, FC500) according to manufacturer’s instruction of PE-Cyanine7 anti-Human CD8a and PE anti-Human CD4 antibodies (Tonbo Biosciences). Data analyzing was performed by using CXP software (Beckman Coulter, Supplementary Fig. 8).

[2] = Cancer donor 1, 3 day, Denosumab 2
[3] = Cancer donor 1, 3 day, Denosumab 10
[4] = Cancer donor 1, 3 day, Denosumab 50
[5] = Cancer donor 1, 3 day, Denosumab 100
[6] = Healthy donor 1, 3 day, Denosumab 2
[7] = Healthy donor 1, 3 day, Denosumab 10
[8] = Healthy donor 1, 3 day, Denosumab 50
[9] = Healthy donor 1, 3 day, Denosumab 100
[10] = Healthy donor 1, 12 day, Denosumab 2
[11] = Healthy donor 1, 12 day, Denosumab 10
[12] = Healthy donor 1, 12 day, Denosumab 50
[13] = Healthy donor 1, 12 day, Denosumab 100
[14] = Healthy donor 2, 9 day, Denosumab 2
[15] = Healthy donor 2, 9 day, Denosumab 10
[16] = Healthy donor 2, 9 day, Denosumab 50
[17] = Healthy donor 2, 9 day, Denosumab 100
[18] = cancer patient donors 1, 3 day, Denosumab conc. 2
[19] = cancer patient donors 1, 3 day, Denosumab conc. 10
[20] = cancer patient donors 1, 3 day, Denosumab conc. 50
[21] = cancer patient donors 1, 3 day, Denosumab conc. 100
[22] = healthy donors 2, 9 day, Denosumab conc. 2
[23] = healthy donors 2, 9 day, Denosumab conc. 10
[24] = healthy donors 2, 9 day, Denosumab conc. 50
[25] = healthy donors 2, 9 day, Denosumab conc. 100

CCOC(=O)c1sc(NC(=O)C(=NNc2cc(C(=O)O)ccc2C(=O)O)C(C)=O)nc1C [S3-04]
OC IC50 (anti-osteoclastogenesis activity) [1]: Inactive; also recorded: lose osetoclastogenesis inhibitory activities

Denosumab: human monoclonal antibody targeting RANKL [reference compound]
CD8+ cells in total cells (%) (T lymphocyte; [2]): 12.95% and 18.88% and 19.88% | CD8+cells in CFSE-cells (%) (T lymphocyte; [2]): 47.83% and 52.36% and 55.86% | CFSE- cells in total cells (%) (T lymphocyte; [2]): 7.68% and 12.7% and 13.49% | CD8+ cells in total cells (%) (T lymphocyte; [3]): 19.52% and 20.76% and 18.73% and 17.85% | CD8+cells in CFSE-cells (%) (T lymphocyte; [3]): 58.3% and 60.56% and 50.89% and 60.05% | CFSE- cells in total cells (%) (T lymphocyte; [3]): 14.67% and 15.58% and 13.42% and 13.19% | CD8+ cells in total cells (%) (T lymphocyte; [4]): 26.97% and 21.55% and 18.02% and 16.53% | CD8+cells in CFSE-cells (%) (T lymphocyte; [4]): 60.83% and 60.63% and 65.78% and 55.26% | CFSE- cells in total cells (%) (T lymphocyte; [4]): 18.07% and 17.65% and 14.37% and 12.07% | CD8+ cells in total cells (%) (T lymphocyte; [5]): 18.07% and 12.62% and 9.75% and 19.7% | CD8+cells in CFSE-cells (%) (T lymphocyte; [5]): 58.14% and 64.44% and 57.46% and 66.87% | CFSE- cells in total cells (%) (T lymphocyte; [5]): 13.67% and 8.82% and 5.94% and 14.04% | CD4+cells in total cells (%) (T lymphocyte; [6]): 69.69% and 70.06% and 70.95% and 70.86% | CD8+ cells in total cells (%) (T lymphocyte; [6]): 18.8% and 18.88% and 18.25% and 19.29% | CD8+cells in CFSE-cells (%) (T lymphocyte; [6]): 26.34% and 25.38% and 32.57% and 36.89% | CFSE- cells in total cells (%) (T lymphocyte; [6]): 26.84% and 28.54% and 29.29% and 24.77% | CD4+cells in total cells (%) (T lymphocyte; [7]): 65.55% and 67.08% and 69.8% and 70.72% | CD8+ cells in total cells (%) (T lymphocyte; [7]): 12.83% and 18.37% and 19.41% and 19.55% | CD8+cells in CFSE-cells (%) (T lymphocyte; [7]): 30.74% and 26.84% and 36.74% and 30.32% | CFSE- cells in total cells (%) (T lymphocyte; [7]): 20.59% and 18.28% and 26.59% and 31.48% | CD4+cells in total cells (%) (T lymphocyte; [8]): 67.05% and 68.05% and 69.94% | CD8+ cells in total cells (%) (T lymphocyte; [8]): 11.73% and 19.23% and 18.46% and 17.76% | CD8+cells in CFSE-cells (%) (T lymphocyte; [8]): 24.41% and 28.83% and 32.28% and 24% | CFSE- cells in total cells (%) (T lymphocyte; [8]): 15.36% and 19.21% and 18.01% and 22.17% | CD4+cells in total cells (%) (T lymphocyte; [9]): 70.71% and 71.03% and 67.42% and 69.45% | CD8+ cells in total cells (%) (T lymphocyte; [9]): 18.51% and 19.03% and 18% | CD8+cells in CFSE-cells (%) (T lymphocyte; [9]): 34.99% and 31.86% and 30.15% and 27.25% | CFSE- cells in total cells (%) (T lymphocyte; [9]): 23.52% and 25.01% and 20.72% and 24.32% | CD4+cells in total cells (%) (T lymphocyte; [10]): 26.49% and 25.92% and 26.52% and 28.25% | CD8+ cells in total cells (%) (T lymphocyte; [10]): 16.3% and 19.12% and 15.44% and 15.28% | CD8+cells in CFSE-cells (%) (T lymphocyte; [10]): 73.19% and 72% and 71.55% and 68.56% | CFSE- cells in total cells (%) (T lymphocyte; [10]): 14.97% and 17.18% and 14.07% and 13.53% | CD4+cells in total cells (%) (T lymphocyte; [11]): 25.95% and 25.52% and 26.76% and 24.64% | CD8+ cells in total cells (%) (T lymphocyte; [11]): 15.64% and 17.84% and 16.84% and 18.91% | CD8+cells in CFSE-cells (%) (T lymphocyte; [11]): 74.4% and 67.54% and 67.82% and 72.96% | CFSE- cells in total cells (%) (T lymphocyte; [11]): 15.13% and 15.31% and 14.05% and 17.18% | CD4+cells in total cells (%) (T lymphocyte; [12]): 24.55% and 27.22% and 26.53% and 28.64% | CD8+ cells in total cells (%) (T lymphocyte; [12]): 20.42% and 18.55% and 17.94% and 15.51% | CD8+cells in CFSE-cells (%) (T lymphocyte; [12]): 76.93% and 74.3% and 73% and 74.26% | CFSE- cells in total cells (%) (T lymphocyte; [12]): 19.56% and 16.94% and 16.16% and 14.84% | CD4+cells in total cells (%) (T lymphocyte; [13]): 25.87% and 24.55% and 27.13% and 25.36% | CD8+ cells in total cells (%) (T lymphocyte; [13]): 17.35% and 16.6% and 14.41% and 19% | CD8+cells in CFSE-cells (%) (T lymphocyte; [13]): 75.89% and 76.07% and 78.18% and 58.5% | CFSE- cells in total cells (%) (T lymphocyte; [13]): 16.6% and 18.55% and 14.85% and 14.03% | CD8+ cells in total cells (%) (T lymphocyte; [14]): 62.1% and 50.03% and 44.09% | CD8+cells in CFSE-cells (%) (T lymphocyte; [14]): 46.7% and 62.97% and 61.41% | CFSE- cells in total cells (%) (T lymphocyte; [14]): 29.5% and 51.59% and 42.27% | CD8+cells in CFSE-cells (%) (T lymphocyte; [15]): 52.77% and 43.74% and 55.57% | CFSE- cells in total cells (%) (T lymphocyte; [15]): 41.17% and 28.01% and 37.92% | CD8+ cells in total cells (%) (T lymphocyte; [16]): 20.69% and 38.29% and 38.09% | CD8+cells in CFSE-cells (%) (T lymphocyte; [16]): 53.31% and 54.69% and 48.69% | CFSE- cells in total cells (%) (T lymphocyte; [16]): 29.61% and 31.67% and 28.7% | CD8+ cells in total cells (%) (T lymphocyte; [17]): 58.4% and 50.02% and 56.13% | CD8+cells in CFSE-cells (%) (T lymphocyte; [17]): 75.13% and 70.69% and 68.35% | CFSE- cells in total cells (%) (T lymphocyte; [17]): 59.44% and 46.67% and 44.15% | CD4+cells in total cells (%) (T lymphocyte; [18]): 2.77% and 5.83% and 5.1% | CFSE-CD4+cells in CFSE-cells (%) (T lymphocyte; [18]): 6.78% and 7.64% and 7.28% | CD4+cells in total cells (%) (T lymphocyte; [19]): 4.94% and 4.86% and 1.84% and 3.11% | CFSE-CD4+cells in CFSE-cells (%) (T lymphocyte; [19]): 6.34% and 3.24% and 8% and 8.92% | CD4+cells in total cells (%) (T lymphocyte; [20]): 1.87% and 6.24% and 6.17% and 6.5% | CFSE-CD4+cells in CFSE-cells (%) (T lymphocyte; [20]): 4% and 0.79% and 1.56% and 4.58% | CD4+cells in total cells (%) (T lymphocyte; [21]): 9.55% and 7.15% and 9.97% and 6.77% | CFSE-CD4+cells in CFSE-cells (%) (T lymphocyte; [21]): 4% and 0% and 0.9% | CD4+CFSE− cell after treatment (T lymphocyte; cancer patient, Fig. 7c, control 5.32 ± 0.76%): 1.33 ± 2.31% | total T cells isolated from cancer patient after treatment (T lymphocyte; cancer patient, Fig. 7c, control 14.51 ± 3.71%): 3.88 ± 1.77% | CD4+cells in total cells (%) (T lymphocyte; healthy donors 1, 3 day, Denosumab conc. 2): 72.37% and 73.3% and 66.26% and 61.44% | CD4+cells in total cells (%) (T lymphocyte; healthy donors 1, 3 day, Denosumab conc. 10): 65.16% and 71.53% and 62.16% and 68.6% | CD4+cells in total cells (%) (T lymphocyte; healthy donors 1, 3 day, Denosumab conc. 50): 73.23% and 69.38% and 66.17% and 74.19% | CD4+cells in total cells (%) (T lymphocyte; healthy donors 1, 3 day, Denosumab conc. 100): 64% and 66.67% and 68.46% and 71.67% | CFSE-CD4+cells in CFSE-cells (%) (T lymphocyte; healthy donors 1, 12 day, Denosumab conc. 2): 9.68% and 10.89% and 9.04% and 9.57% | CFSE-CD4+cells in CFSE-cells (%) (T lymphocyte; healthy donors 1, 12 day, Denosumab conc. 10): 10.52% and 10.85% and 8.44% and 10.78% | CFSE-CD4+cells in CFSE-cells (%) (T lymphocyte; healthy donors 1, 12 day, Denosumab conc. 50): 8.71% and 10.48% and 9.97% and 9.81% | CFSE-CD4+cells in CFSE-cells (%) (T lymphocyte; healthy donors 1, 12 day, Denosumab conc. 100): 9.75% and 11.53% and 10.58% | CD4+cells in total cells (%) (T lymphocyte; [22]): 17% and 17.01% and 14.7% | CFSE-CD4+cells in CFSE-cells (%) (T lymphocyte; [22]): 42.1% and 26.91% and 24.13% | CD4+cells in total cells (%) (T lymphocyte; [23]): 13.52% and 17.3% and 15.5% | CFSE-CD4+cells in CFSE-cells (%) (T lymphocyte; [23]): 24.29% and 47.85% and 28.82% | CD4+cells in total cells (%) (T lymphocyte; [24]): 12.4% and 14.63% and 15.19% | CFSE-CD4+cells in CFSE-cells (%) (T lymphocyte; [24]): 19.21% and 28.79% and 29.22% | CD4+cells in total cells (%) (T lymphocyte; [25]): 14.9% and 10.87% and 12.57% | CFSE-CD4+cells in CFSE-cells (%) (T lymphocyte; [25]): 20.36% and 16.35% and 22.15% | total CD4+ and CD4+CFSE− T cell (T lymphocyte; human 2, 9 days, 100 μg/mL): dropped by nearly half | lymphocyte proliferation (T lymphocyte; human lymphocytes, in words): notably inhibits lymphocyte proliferation at high concentration
